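Exposure lasted 48 hours, with cells grown in 96-well plates and compounds tested at five concentrations. At the GI50, growth is halved. TGI: total growth inhibition.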
How the values were obtained:
Assay in all cases: NCI-60 cell line screen, 48 h
[1] = system: U251 CNS
[2] = system: NCI-H522 lung
[3] = system: OVCAR-8 ovarian
[4] = system: HCT-15 colon
[5] = system: NCI-H460 lung
[6] = system: EKVX NSCLC
[7] = system: OVCAR-4 ovarian
[8] = system: UACC-62 melanoma
[9] = system: M14 melanoma
[10] = system: SW-620 colon

Compound	TGI [1] [µM]	TGI [2] [µM]	TGI [3] [µM]	TGI [4] [µM]	TGI [5] [µM]	TGI [6] [µM]	TGI [7] [µM]	TGI [8] [µM]	TGI [9] [µM]	TGI [10] [µM]	GI50 [1] [µM]	GI50 [2] [µM]	GI50 [3] [µM]	GI50 [4] [µM]	GI50 [5] [µM]	GI50 [6] [µM]	GI50 [7] [µM]	GI50 [8] [µM]	GI50 [9] [µM]	GI50 [10] [µM]
CC(=O)n1nc(-c2ccccc2)n(/N=C/c2ccc([N+](=O)[O-])o2)c1=O	33.4	7.15	33.3	15.4	15.9	> 49.1	35.6	23.8	4.08	22.9										
CCOP(=O)(OCC)OC1CC(n2cc(C)c(=O)n(C)c2=O)OC1CO[Si](C)(C)C(C)(C)C (stereo not given)	> 100	> 100	> 100	> 100	> 100	68.4	> 100	> 100	> 100	> 100										
Cc1cc(C)nc(NS(=O)(=O)c2ccc(NC(=O)c3cccc4c(NNc5ccc(S(=O)(=O)N=C(N)N)cc5)c5ccccc5nc34)cc2)n1	> 50	> 50	> 50	> 50	> 50	> 50	> 50	> 50	> 50	> 50										
Cc1cc(O)c(-c2cc(O)c(C)cc2O)cc1O	30.3	12.2	16.7	> 51.1	39.8	28.7	20.9	29.8	22.9	6										
COc1ccc(Oc2cnn(C(Br)(Br)C(C)=O)c(=O)c2Br)cc1	27.8	14.7	27	39.8	37.1	36.1	32.6	29.6	30.6	27.8										
O=S1(=O)c2cnccc2NC(=NCc2ccccc2)N1c1ccccc1	> 100	> 100	> 100	> 100	> 100	> 100	> 100	> 100	> 100	> 100										
O=[N+]([O-])c1cc(Cl)ccc1Sc1ccccc1	> 100	> 100	> 100	> 100	> 100	> 100	> 100	> 100	> 100	> 100										
COc1ccc(-n2nc(C)c3c(Nc4ccc(NC(=O)Nc5ccc(Cl)c(C(F)(F)F)c5)cc4)ncnc32)cc1	3.08	3.65	11.7	3.09	5.07	5.55	> 100	3.74	4.32	4.35	1.15	1.71	2.84	1.42	2.17	2.19	2.85	1.78	1.68	1.9
CN1N=C(c2ccncc2)OC1c1ccccc1F (stereo not given)	> 100	> 100	> 100	> 100	> 100	> 100	> 100	> 100	> 100	> 100										
C[n+]1c(/C=C/c2ccc(O)c3ncccc23)[se]c2ccccc21	16.3	24.8	29.8	17.6	9.34	28	> 47	18.3	17.8	> 100										
O=C(O)CN(CC(=O)O)C(C(=O)O)c1ccccc1 (stereo not given)	> 100	> 100	> 100	> 100	> 100	> 100	> 100	> 100	> 100	> 100										
O=C1c2cccc(O)c2C(=O)c2c(OC3OC(CO)C(O)C(O)C3O)cccc21 (stereo not given)	> 100	40.5	> 100	94.9	59	> 100	32.1	> 100	51.3	> 100										
N#Cc1c(-c2ccccc2)c2c([nH]c1=O)-c1cc([N+](=O)[O-])ccc1CCC2	> 100	97.8	> 100	61	> 100	88.5	> 100	37.3	93.4	> 100										
O=C(OCC1OC(n2nc(Cn3nnc(-c4cccnc4)n3)n(-c3cccc4ccccc34)c2=S)C(OC(=O)c2ccccc2)C1OC(=O)c1ccccc1)c1ccccc1 (stereo not given)	> 100	> 100	> 100	> 100	> 100	> 100	> 100	> 100	> 100	> 100										
c1ccc([P+](CCCCCCCC[P+](c2ccccc2)(c2ccccc2)c2ccccc2)(c2ccccc2)c2ccccc2)cc1	> 100	12.1	> 100	> 100	> 48.1	> 100	> 100	> 94.4	> 100	> 100										
CN(C)c1ccc(Cc2cc3c(O)ccc(O)c3cc(Cc3ccc(N(C)C)cc3)c2=O)cc1	41.4	32.5	77.4	58	> 100	44.2	39.5	65.9	34.2	41.9										
CN(C)c1cccc2c1C(=O)C=CC21c2ccc(N(C)C)c3c(N(C)C)ccc(c23)C(c2ccccc2)C1c1ccccc1 (stereo not given)	25.8	47.7	27.3	66.8	61.5	54.8	27.2	54.7	31.1	54										
Cc1c(-c2ccccc2)[nH]n(C2=NCCN2)c1=O	> 100	> 100	> 100	> 100	> 100	> 100	> 100	> 100	> 100	> 100										
COc1nc2c(N3CCCC3)nc(N3CCNCC3)nc2nc1NCc1ccccc1	3.5	2.54	10.7	3.82	4.91	10.8	11.5	3.29	3.03	11.1										
CC(C)/C(Cl)=N/OC(=O)Nc1ccc(OC(F)(F)F)cc1	31.2	2.81	33.5	18.8	31.2	22.9	16.7	30.2	12	3.27										
C/C(=C\CO)CC/C=C(\C)CNc1ccc([N+](=O)[O-])cc1	> 100	66.8	> 100	> 100	> 100	> 100	> 100	> 100	> 100	> 100										
Nc1ccc(-c2nn3c(COc4ccc(Cl)cc4)nnc3s2)cc1	> 100	> 100	> 100	> 100	> 100	> 100	> 100	> 100	> 100	> 100										
Clc1ccc(/C(=C\c2ccccc2)Cn2ccnc2)cc1	31.2	28	33.4	39.1	44.8	68.4	> 100	35.8	39.4	> 100										
C[C@H]1[C@H](C)CC[C@]2(C(=O)OC3OC(CO)C(O)C(O)C3O)CC[C@]3(C)C(=CC[C@@H]4[C@@]5(C)C[C@H]6OC(=O)c7cc(O)c(O)c(O)c7-c7c(cc(O)c(O)c7O)C(=O)O[C@@H]6C(CO)(CO)[C@@H]5CC[C@]43C)[C@H]12 (stereo not given in full)	42.2	38.6	> 100	> 100	> 100	> 100	> 100	> 100	> 100	> 100										
c1ccc(C2CC(=NC3CCCCC3)Nc3ccccc3N2)cc1 (stereo not given)	> 100	78.1	> 100	> 100	> 100	> 100	> 100	> 100	> 100	> 100										
CC(C)[Si](OC/C(=C/COC(C)(C)C)[C@H]1CC=C(C(=O)c2ccccc2N2CN(C)C(=O)N(C)C2)C1)(C(C)C)C(C)C	23	19.7	18.1	27.1	28.7	30.3	39.3	23.3	27	6.61										
C(=C\c1ccccc1)/COc1ccccc1C(N1CCOCC1)n1nc2ccccc2n1 (stereo not given)	17.6	49.3	14	11.7	> 51.3	49.6	57.9	16.4	13.5	36.5										
O=C1C(C(O)(C(F)(F)F)C(F)(F)F)CCC1C(O)(C(F)(F)F)C(F)(F)F (stereo not given)	99.5	18.9	> 83.6	> 100	> 100	> 100	> 100	> 100	47	> 100										
COc1ccc2c(c1)c(=O)c1c(NCCNCCO)ccc3c(=O)n(CCN(C)C)c(=O)n2c31	0.937	0.0868	1.16	6.39	0.266	0.819	0.511	0.293	1.86	5.94										
COc1cc2[nH]c(-c3ccccc3)cc(=O)c2c(OC)c1OC	> 100	> 100	> 100	> 100	> 100	> 100	> 100	> 100	> 100	> 100										

Reference: PubChem BioAssay (NCI)
